Source: PubChem BioAssay AID1259407 (Chemical Carcinogenesis Research Information System (CCRIS), 2018)
Activity calls are given as the source filed them. The rule behind the calls is not given here.

Tested on: CCRIS mutagenicity, Ames/micronucleus/aberration tests
Assay: CCRIS mutagenicity studies
[1] = Test System: AMES SALMONELLA TYPHIMURIUM, Strain/Indicator: TA97A, Metabolic Activation: NONE, Method: STANDARD PLATE
[2] = Test System: AMES SALMONELLA TYPHIMURIUM, Strain/Indicator: TA98, Metabolic Activation: NONE, Method: STANDARD PLATE
[3] = Test System: AMES SALMONELLA TYPHIMURIUM, Strain/Indicator: TA100, Metabolic Activation: NONE, Method: STANDARD PLATE
[4] = Test System: AMES SALMONELLA TYPHIMURIUM, Strain/Indicator: TA1535, Metabolic Activation: NONE, Method: STANDARD PLATE
[5] = Test System: AMES SALMONELLA TYPHIMURIUM, Strain/Indicator: TA1537, Metabolic Activation: NONE, Method: STANDARD PLATE
[6] = Test System: AMES SALMONELLA TYPHIMURIUM, Strain/Indicator: TA97, Metabolic Activation: NONE, Method: STANDARD PLATE
[7] = Test System: AMES SALMONELLA TYPHIMURIUM, Strain/Indicator: TA98, Metabolic Activation: RAT, LIVER, S-9, AROCLOR 1254, Method: STANDARD PLATE
[8] = Test System: AMES SALMONELLA TYPHIMURIUM, Strain/Indicator: TA100, Metabolic Activation: RAT, LIVER, S-9, AROCLOR 1254, Method: STANDARD PLATE
[9] = Test System: AMES SALMONELLA TYPHIMURIUM, Strain/Indicator: TA1535, Metabolic Activation: RAT, LIVER, S-9, AROCLOR 1254, Method: STANDARD PLATE
[10] = Test System: AMES SALMONELLA TYPHIMURIUM, Strain/Indicator: TA1537, Metabolic Activation: RAT, LIVER, S-9, AROCLOR 1254, Method: STANDARD PLATE

Structure (SMILES): NCCc1c[nH]c2ccc(O)cc12 (tested in a mixture with another compound)
- mutagenic call [1]: inactive; negative
- mutagenic call (Test System: AMES SALMONELLA TYPHIMURIUM, Strain/Indicator: TA97A, Metabolic Activation: RAT LIVER S-9, PHENOBARBITOL/BETA-NAPHTHOFLAVONE, Method: STANDARD PLATE): inactive; negative
- mutagenic call [2]: inactive; negative
- mutagenic call (Test System: AMES SALMONELLA TYPHIMURIUM, Strain/Indicator: TA98, Metabolic Activation: RAT LIVER S-9, PHENOBARBITOL/BETA-NAPHTHOFLAVONE, Method: STANDARD PLATE): inactive; negative
- mutagenic call [3]: inactive; negative
- mutagenic call (Test System: AMES SALMONELLA TYPHIMURIUM, Strain/Indicator: TA100, Metabolic Activation: RAT LIVER S-9, PHENOBARBITOL/BETA-NAPHTHOFLAVONE, Method: STANDARD PLATE): inactive; negative
- mutagenic call [4]: inactive; negative
- mutagenic call (Test System: AMES SALMONELLA TYPHIMURIUM, Strain/Indicator: TA1535, Metabolic Activation: RAT LIVER S-9, PHENOBARBITOL/BETA-NAPHTHOFLAVONE, Method: STANDARD PLATE): inactive; negative
- mutagenic call [5]: inactive; negative
- mutagenic call (Test System: AMES SALMONELLA TYPHIMURIUM, Strain/Indicator: TA1537, Metabolic Activation: RAT LIVER S-9, PHENOBARBITOL/BETA-NAPHTHOFLAVONE, Method: STANDARD PLATE): inactive; negative
- mutagenic call (Test System: E.COLI, Strain/Indicator: WP2/UVRA, Metabolic Activation: NONE, Method: STANDARD PLATE): inactive; negative
- mutagenic call (Test System: E.COLI, Strain/Indicator: WP2/UVRA, Metabolic Activation: RAT LIVER S-9, PHENOBARBITOL/BETA-NAPHTHOFLAVONE, Method: STANDARD PLATE): inactive; negative

Structure (SMILES): C=CCC1=C(C)C(OC(=O)[C@@H]2[C@@H](C=C(C)C)C2(C)C)CC1=O (stereo partly drawn)
- mutagenic call [6]: active; positive
- mutagenic call (Test System: AMES SALMONELLA TYPHIMURIUM, Strain/Indicator: TA97, Metabolic Activation: RAT, LIVER, S-9, PHENOBARBITONE, Method: STANDARD PLATE): active; positive
- mutagenic call (Test System: AMES SALMONELLA TYPHIMURIUM, Strain/Indicator: TA98): active; positive
- mutagenic call (Test System: AMES SALMONELLA TYPHIMURIUM, Strain/Indicator: TA98, Metabolic Activation: NONE): inactive; negative
- mutagenic call (Test System: AMES SALMONELLA TYPHIMURIUM, Strain/Indicator: TA98, Metabolic Activation: NONE, Method: MICROSUSPENSION): inactive; negative
- mutagenic call [2]: inactive; negative
- mutagenic call [7]: inactive; negative
- mutagenic call (Test System: AMES SALMONELLA TYPHIMURIUM, Strain/Indicator: TA98, Metabolic Activation: RAT, LIVER, S-9, PHENOBARBITONE, Method: STANDARD PLATE): inactive; negative
- mutagenic call (Test System: AMES SALMONELLA TYPHIMURIUM, Strain/Indicator: TA98, Metabolic Activation: S-9, Method: MICROSUSPENSION): inactive; negative
- mutagenic call (Test System: AMES SALMONELLA TYPHIMURIUM, Strain/Indicator: TA100): active; positive
- mutagenic call (Test System: AMES SALMONELLA TYPHIMURIUM, Strain/Indicator: TA100, Metabolic Activation: NONE): active; positive
- mutagenic call (Test System: AMES SALMONELLA TYPHIMURIUM, Strain/Indicator: TA100, Metabolic Activation: NONE, Method: MICROSUSPENSION): inactive; negative
- mutagenic call [8]: active; positive
- mutagenic call (Test System: AMES SALMONELLA TYPHIMURIUM, Strain/Indicator: TA100, Metabolic Activation: RAT, LIVER, S-9, PHENOBARBITONE, Method: STANDARD PLATE): active; positive
- mutagenic call (Test System: AMES SALMONELLA TYPHIMURIUM, Strain/Indicator: TA100, Metabolic Activation: S-9, Method: MICROSUSPENSION): inactive; negative
- mutagenic call (Test System: AMES SALMONELLA TYPHIMURIUM, Strain/Indicator: TA100, Metabolic Activation: S-9 MIX, Method: STANDARD PLATE): active; positive
- mutagenic call (Test System: AMES SALMONELLA TYPHIMURIUM, Strain/Indicator: TA104, Metabolic Activation: NONE, Method: STANDARD PLATE): inactive; negative
- mutagenic call (Test System: AMES SALMONELLA TYPHIMURIUM, Strain/Indicator: TA104, Metabolic Activation: RAT, LIVER, S-9, PHENOBARBITONE, Method: STANDARD PLATE): active; positive
- mutagenic call [4]: inactive; negative
- mutagenic call [9]: inactive; negative
- mutagenic call [5]: inactive; negative
- mutagenic call [10]: inactive; negative
- mutagenic call (Test System: E. COLI, Strain/Indicator: WP2, Metabolic Activation: NONE, Method: STANDARD PLATE): inactive; negative
- mutagenic call (Test System: E. COLI, Strain/Indicator: WP2, Metabolic Activation: RAT, LIVER, S-9, AROCLOR 1254, Method: STANDARD PLATE): inactive; negative

Structure (SMILES): N=C1C=CC(=C(c2ccc(N)cc2)c2ccc(N)cc2)C=C1
- mutagenic call (End Point: IN VITRO CHROMOSOMAL ABERRATIONS, Test System: CHO CELLS, Metabolic Activation: NONE): inactive; negative
- mutagenic call (End Point: IN VITRO CHROMOSOMAL ABERRATIONS, Test System: CHO CELLS, Metabolic Activation: RAT, LIVER, S-9, AROCLOR 1254): inactive; negative
- mutagenic call [6]: inactive; negative
- mutagenic call (Test System: AMES SALMONELLA TYPHIMURIUM, Strain/Indicator: TA97, Metabolic Activation: RAT, LIVER, S-9, AROCLOR 1254, Method: STANDARD PLATE): active; positive
- mutagenic call [1]: inactive; negative
- mutagenic call (Test System: AMES SALMONELLA TYPHIMURIUM, Strain/Indicator: TA97A, Metabolic Activation: RAT, LIVER, S-9, AROCLOR 1254, Method: STANDARD PLATE): inactive; negative
- mutagenic call (Test System: AMES SALMONELLA TYPHIMURIUM, Strain/Indicator: TA98, Metabolic Activation: HAMSTER, LIVER, S-9, AROCLOR 1254, Method: STANDARD PLATE): active; positive
- mutagenic call [2]: active; positive
- mutagenic call [7]: active; positive
- mutagenic call (Test System: AMES SALMONELLA TYPHIMURIUM, Strain/Indicator: TA100, Metabolic Activation: HAMSTER, LIVER, S-9, AROCLOR 1254, Method: STANDARD PLATE): active; positive
- mutagenic call [3]: active; positive
- mutagenic call [8]: active; positive
- mutagenic call (Test System: AMES SALMONELLA TYPHIMURIUM, Strain/Indicator: TA1535, Metabolic Activation: HAMSTER, LIVER, S-9, AROCLOR 1254, Method: STANDARD PLATE): inactive; negative
- mutagenic call [4]: inactive; negative
- mutagenic call [9]: inactive; negative
- mutagenic call (Test System: AMES SALMONELLA TYPHIMURIUM, Strain/Indicator: TA1537, Metabolic Activation: HAMSTER, LIVER, S-9, AROCLOR 1254, Method: STANDARD PLATE): inactive; negative
- mutagenic call [5]: inactive; negative
- mutagenic call [10]: inactive; negative
- mutagenic call (Test System: E. COLI, Strain/Indicator: WP2 UVRA, Metabolic Activation: HAMSTER, LIVER, S-9, AROCLOR 1254, Method: STANDARD PLATE): inactive; negative
- mutagenic call (Test System: E. COLI, Strain/Indicator: WP2 UVRA, Metabolic Activation: HAMSTER, LIVER, S-9, Method: STANDARD PLATE): inactive; negative
- mutagenic call (Test System: E. COLI, Strain/Indicator: WP2 UVRA, Metabolic Activation: MOUSE, LIVER, S-9, AROCLOR 1254, Method: STANDARD PLATE): inactive; negative
- mutagenic call (Test System: E. COLI, Strain/Indicator: WP2 UVRA, Metabolic Activation: MOUSE, LIVER, S-9, Method: STANDARD PLATE): inactive; negative
- mutagenic call (Test System: E. COLI, Strain/Indicator: WP2 UVRA, Metabolic Activation: NONE, Method: STANDARD PLATE): inactive; negative
- mutagenic call (Test System: E. COLI, Strain/Indicator: WP2 UVRA, Metabolic Activation: RAT, LIVER, S-9, AROCLOR 1254, Method: STANDARD PLATE): inactive; negative
- mutagenic call (Test System: E. COLI, Strain/Indicator: WP2 UVRA, Metabolic Activation: RAT, LIVER, S-9, Method: STANDARD PLATE): inactive; negative
- mutagenic call (Test System: MOUSE LYMPHOMA, Strain/Indicator: L5178Y (TK+/TK-), Metabolic Activation: NONE, Method: SUSPENSION/PLATE): active; positive
- mutagenic call (Test System: MOUSE LYMPHOMA, Strain/Indicator: L5178Y (TK+/TK-), Metabolic Activation: RAT, LIVER, S-9, AROCLOR 1254, Method: SUSPENSION/PLATE): active; positive
